Experimental data reported in patent US6133279A, “Therapeutic agents for renal diseases and organ preservatives” (Chugai Seiyaku Kabushiki Kaisha, priority 1996, dated 2000).
Like-named read-outs stand apart in the source and are kept apart here.

How the values were obtained:
[1] = test system: murine mesangial derived MES13 cells; assay: Protective effect against oxidized LDL-induced injury of murine mesangial cells (in vitro); format: cell-based; details: Mus musculus, MES13, 10 h, mean ± standard deviation, read-out: Cytoprotection rate (%)
Experimental: For the purpose of evaluating in vitro cytoprotective effect of the compounds of the present invention on mesangial cells, a cytoprotective study was performed using murine mesangial derived MES13 cells (ATCC-CRL-1927) injured by oxidized LDL.
Oxidized LDL was prepared in the same manner as in Test example 1. Cell culture was carried out by plating 2.5×10^4 cells/250 μl/well on a 48-well plate using FBS-free medium (mixture of DME medium and F12 medium in a ratio of 3:1). Test compounds were dissolved or suspended in ethanol and added to the wells in an amount of 1.25 μl/well to a concentration of 1 or 10 μM in each well. After 16 hours or immediately after the addition of the compounds, oxidized LDL was added to cells in an amount of 25 μl/well to a concentration of 91 μg/ml and the cells were cultured for 10 hours after addition of the oxidized LDL. Then, 150 μl/well of the culture medium were collected and measured for the lactate dehydrogenase level (LDL: SIGMA DIAGNOSTICS) having leaked in the medium.
The magnitude of cytoprotective effect was expressed as the cytoprotection rate which was determined by calculating the data assuming that the magnitude in wells containing oxidized LDL is 0% and that the magnitude in containing saline is 100%.

[2] = test system: porcine kidney-derived LLC-PK1 cells; assay: Protective effect against oxidized LDL-induced injury of porcine kidney-derived LLC-PK1 cells (2); format: cell-based; details: Sus scrofa, LLC-PK1, 6 h, mean ± standard deviation, read-out: Cytoprotection rate (%)
Experimental: For the purpose of evaluating in vitro cytoprotective effect of the compounds of the present invention, a cytoprotective study was performed using porcine kidney-derived LLC-PK1 cells (ATCC-CRL-13921) injured by oxidized low-density lipoprotein (oxidized LDL) in the same manner as in Test example 1 with the exception of some points.
Preparation of oxidized LDL and the conditions for cell culture and addition of test compounds were the same as in Test example 1. However, oxidized LDL was not diluted with saline and added to cells in an amount of 25 μl/well to a concentration of 91 μg/ml and the cells were cultured for 6 hours after addition of the oxidized LDL. Then, 150 μl/well of the culture medium were collected and measured for the lactate dehydrogenase (LDH) level (LD-L: SIGMA DIAGNOSTICS) having leaked in the medium.

[3] = compound added 16 hours before adding oxidized LDL
[4] = compound added immediately before adding oxidized LDL

SMILES	inhibition at 1 µM [1, 3]	inhibition at 1 µM [1, 4]	inhibition at 10 µM [1, 3]	inhibition at 10 µM [1, 4]	inhibition at 0.1 µM [2, 3]	inhibition at 0.1 µM [2, 4]	inhibition at 1 µM [2, 3]	inhibition at 1 µM [2, 4]	inhibition at 10 µM [2, 3]	inhibition at 10 µM [2, 4]
CC1(C=CCCCC(=O)O)Cc2c(cc(C(C)(C)C)c(O)c2C(C)(C)C)O1 (centres unmarked) [Example 77, 6-(4,6-Di-t-butyl-5-hydroxy-2-methyl-2,3-dihydrobenzofuran-2-yl)-5-hexenoicacid]	8.4 ± 0.4%	8.7 ± 2.3%	2.5 ± 2.8%	24.3 ± 1.7%	12.3 ± 2.7%	9.1 ± 1.8%	6.1 ± 1.5%	10.6%	35.8 ± 4%	48.5 ± 2.1%
CC1(C(=O)N2CCCC2)Cc2c(cc(C(C)(C)C)c(O)c2C(C)(C)C)O1 (centres unmarked) [Example 74, 1-(4,6-Di-t-butyl-5-hydroxy-2-methyl-2,3-dihydrobenzofuran-2-carbonyl)pyrrolidine]	-10.2 ± 1.4%	18.7 ± 2.8%	24.5 ± 3.3%	73 ± 0.3%	25.2 ± 3.3%	10.1 ± 2.3%	54.8 ± 3.8%	72.7%	103.6 ± 0.5%	103.5 ± 0.6%
CC1(CCCCCC(=O)O)Cc2c(cc(C(C)(C)C)c(O)c2C(C)(C)C)O1 (centres unmarked) [Example 78, 6-(4,6-Di-t-butyl-5-hydroxy-2-methyl-2,3-dihydrobenzofuran-2-yl)hexanoic acid]	13.5 ± 5.6%	13.2 ± 1.4%	7.6 ± 2.1%	51.3 ± 2.7%	-2.8 ± 0.9%	-11.6 ± 2.7%	-10.7 ± 8.9%	-6.7%	67.5 ± 6.1%	80.9 ± 1.5%
CC1(CNC(=N)NN)Cc2c(cc(C(C)(C)C)c(O)c2C(C)(C)C)O1 (centres unmarked) [Example 81, 1-Amino-3-[(4,6-di-t-butyl-5-hydroxy-2-methyl-2,3-dihydrobenzofuran-2-yl)methyl]guanidine]	-3.9 ± 1.5%	3.9 ± 2.2%	7.3 ± 7.2%	73.4 ± 3.3%	6.9 ± 3.1%	8.8 ± 1.6%	4.2 ± 5.1%	37.8%	101.1 ± 0.1%	101.3 ± 0.1%
CCOC(=O)/C=C/C1(C)Cc2c(cc(C(C)(C)C)c(O)c2C(C)(C)C)O1 (centres unmarked) [Example 75, Ethyl 3-(4,6-di-t-butyl-5-hydroxy-2-methyl-2,3-dihydrobenzofuran-2-yl)-2-propenoate]	-8 ± 2%	32.3 ± 2.4%	64.5 ± 6.4%	79 ± 1.8%	4.9 ± 2.7%	-4.9 ± 1.8%	26.6 ± 7%	51.8%	99.8 ± 0.9%	98.7 ± 0.4%
CC(C)(C)c1cc2c(c(C(C)(C)C)c1O)CC1(CCOCC1)S2 [Example 69, 4,6-Di-t-butyl-5-hydroxy-2,3-dihydrobenzothiophene-2-spiro-4'-tetrahydropyran]	4.2 ± 6.3%	15.6 ± 4%	54.8 ± 9.3%	89.8 ± 0.8%	1 ± 4.7%	4.5 ± 2.1%	24.6 ± 12.8%	42.5%	100.4 ± 0.5%	101.6 ± 0.7%
CC1(COc2ccc(CNNC(=N)N)cc2)Cc2c(cc(C(C)(C)C)c(O)c2C(C)(C)C)O1 (centres unmarked) [Example 86, 1-{4-[(4,6-Di-t-butyl-5-hydroxy-2-methyl-2,3-dihydrobenzofuran-2-yl)methoxy]benzylamino}guanidine]	-1 ± 11.2%	19.8 ± 7%	-4.3 ± 1.9%	78.7 ± 0.7%	-0.4 ± 1.9%	-0.7 ± 2.3%	3.6 ± 5.8%	0.2%	40 ± 2.2%	102.5 ± 0.5%
CC(C)(C)c1cc2c(c(C(C)(C)C)c1O)CC1(CCCCCCC1)O2 [Example 21, 4,6-Di-t-butyl-5-hydroxy-2,3-dihydrobenzofuran-2-spiro-1'-cyclooctane]	-7.5 ± 4.2%	-1.5 ± 1.2%	-7 ± 3.4%	11.9 ± 4.8%	15.6 ± 3.6%	2.5 ± 2.5%	13.7 ± 13.4%	6.1%	16 ± 2.6%	14.4 ± 3.9%
CCOC(=O)CCC1(C)Cc2c(cc(C(C)(C)C)c(O)c2C(C)(C)C)O1 (centres unmarked) [Example 76, Ethyl 3-(4,6-di-t-butyl-5-hydroxy-2-methyl-2,3-dihydrobenzofuran-2-yl)propanoate]	-4.8 ± 4.1%	5.3 ± 3.9%	-17.2 ± 0.9%	34.1 ± 2.5%	-10.4 ± 4.2%	-12.8 ± 1.2%	-2.8 ± 3.5%	-7.6%	13.8 ± 4.2%	58.8 ± 9.5%
CC1(CNNC(=N)N)Cc2c(cc(C(C)(C)C)c(O)c2C(C)(C)C)O1 (centres unmarked) [Example 87, 1-[(4,6-Di-t-butyl-5-hydroxy-2-methyl-2,3-dihydrobenzofuran-2-yl)methylamino]guanidine]	3.7 ± 3.3%	30.3 ± 3.8%	35.5 ± 4.2%	86.2 ± 0.6%	-7.8 ± 4.4%	-0.3 ± 0.5%	6.5 ± 5.2%	28.6%	103.6 ± 0.5%	101.8 ± 0.6%
CC1(CNC(N)=S)Cc2c(cc(C(C)(C)C)c(O)c2C(C)(C)C)O1 (centres unmarked) [Example 80, 1-[(4,6-Di-t-butyl-5-hydroxy-2-methyl-2,3-dihydrobenzofuran-2-yl)methyl]thiourea]	-7 ± 0.8%	-1.3 ± 3.4%	22.1 ± 0.7%	56.2 ± 2.4%	9.2 ± 1.8%	-1.3 ± 1.4%	23.7 ± 5.8%	10.7%	102.4 ± 0.5%	102.6 ± 1%
CC1(CO)Cc2c(cc(C(C)(C)C)c(O)c2C(C)(C)C)S1 (centres unmarked) [Example 63, 4,6-Di-t-butyl-5-hydroxy-2-hydroxymethyl-2-methyl-2,3-dihydrobenzothiophene]					4.2 ± 4.4%	5.9 ± 1.7%	95.3 ± 3.6%	97.3%	100.2 ± 0.4%	101.1 ± 0.2%
CC1(CN)Cc2c(cc(C(C)(C)C)c(O)c2C(C)(C)C)O1 (centres unmarked) [Example 70, 2-Aminomethyl-4,6-di-t-butyl-5-hydroxy-2-methyl-2,3-dihydrobenzofuran]					17.5 ± 2.2%	9.9 ± 2.4%	101 ± 0.7%	101%	100.7 ± 0.8%	101.3 ± 0.6%
